{"source": "patent US20230227477A1", "about": "“COMPOUNDS FOR SENSING REACTIVE OXYGEN SPECIES AND METHODS FOR USING THE SAME” (WAKE FOREST UNIVERSITY HEALTH SCIENCES, priority 2020, published 2023)", "key": {"[1]": {"test": "Selectivity screen of compound RAH2115 against oxidants, reductants, nucleophiles and salts (turn-on fluorescence)", "format": "physicochemical", "conditions": "RAH2115 10 μM", "text": "Given the longer excitation and emission profile of resorufin, it was hypothesized that compound RAH2115 would provide a better gauge of the overall selectivity and sensitivity of the scaffold towards H2O2 while confirming its potential applications within a biological setting. The high selectivity the scaffold towards H2O2 was confirmed by thoroughly screening compound RAH2115 against various oxidants, reductants, and nucleophiles in PBS buffer (pH 7.4) and measuring the resulting turn-on fluorescence after a 2 h incubation period (See FIG. 4, Graph A).\n[…] Next, 1.080 mL of a freshly prepared 111.1 μM compound RAH2115 stock solution was added to 10.80 mL of 1× PBS buffer (pH 7.4) to give a total volume of 11.88 mL. 120 μL of analyte stock solution (PBS buffer alone, hydrogen peroxide, glutathione, glutathione disulfide, sodium nitrite, L-cysteine, L-lysine, L-serine, sodium chloride, sodium bromide, L-homocysteine, sodium sulfide, sodium sulfate, sodium thiosulfate and sodium hypochlorite) was then added to give a final volume of 12 mL, and each reaction was left to stir at 37° C."}, "[2]": {"test": "Initial rates of fluorescence intensity of compound RAH2115 vs H2O2 concentration; detection limit", "format": "physicochemical", "conditions": "Detection Limit=3σ/κ, slope from FIG. 4 Graph B", "protocol": "The initial response rate of compound RAH2115 was also verified to be directly proportional to the concentration of H2O2. Specifically, immediately prior to use, 5 mM and 0.5 mM stock solutions of hydrogen peroxide were prepared in freshly degassed 1× PBS buffer (pH 7.4) using reagent grade H2O2 (30%). A 100 μM stock solution of compound RAH2115 was prepared in 200-proof ethanol. […] The plate was inserted into a 96-well plate reader (BioTek SYNERGY-HTX hybrid multi-mode reader, Winooski, Vt.) heated to 37° C., and agitated to ensure homogeneity. Fluorescence measurements were recorded and plotted as the change in initial rates of fluorescence intensity vs hydrogen peroxide concentration. This assay was repeated in triplicate and recorded as the mean+/−STDEV from three experiments.\nThis finding was deemed to be of great significance as the rate of payload release from the scaffold could then be tuned by varying the amount of H2O2. In addition, this finding also allowed for reaction-based fluorescent probes based off of this design (i.e., compound RAH2115) to be used to accurately quantify the amount of H2O2 in buffered solutions. Indeed, as depicted in FIG. 4, Graph B, when the initial rates of increasing fluorescence intensity of compound RAH2115 were plotted versus hydrogen peroxide concentration, excellent linearity between 0-1 mM was observed (R^2=0.99). […]"}, "[3]": {"test_system": "HeLa cells", "test": "Imaging hydrogen peroxide in living HeLa cells with compound RAH2115 (confocal)", "format": "cell-based, human", "conditions": "ex: 561 nm, em: 587 nm", "protocol": "HeLa (human cervical cancer) cells were grown and maintained appropriately according to the American Type Culture Collection (Manassas, Va.). Dulbecco's Modified Eagle Medium:F12-K (1:1) was supplemented with 10% fetal bovine serum (FBS), 1% penicillin-streptomycin, and 1% L-glutamine (ThermoFisher). Cells were incubated at 37° C. in a 5% CO2 atmosphere and split at 70-80% confluency every 2-3 days.\nAt 70-80% confluency, HeLa cells were seeded on two 35 mm glass-bottom round plates (MatTek Corporation, Ashland, Mass.) at a density of 200 k cells/mL. After adhering overnight, FBS-free media was aspirated and cells were washed with phosphate buffered saline (1×, pH 7.4). Cells in one dish were then incubated with 10 mM Paraquat (Methyl Viologen) for 4 h. Afterwards, both dishes were washed and incubated with compound RAH2115 (10 μM) for 1 hour. After a final PBS wash, both plates were rehydrated in phenol red-free media for imaging. Both control (absence of paraquat) and experimental (presence of paraquat) plates were imaged: ex: 561 nm, em: 587 nm. […]\nAn automated cell selection algorithm within the ImageJ software was used to quantify intracellular fluorescence. Cells from both control and experimental groups were subjected to Gaussian smoothing in order to accurately measure fluorescence within cells based on a minimum threshold against background. […]"}}}
{"smiles": "CC(C)(Cc1ccccc1B1OC(C)(C)C(C)(C)O1)C(=O)Oc1ccc2nc3ccc(=O)cc-3oc2c1", "note": "[compound RAH2115]", "values": [{"measurement": "increase in relative fluorescence intensity when co-incubated with H2O2", "setting": "[1]; 1 mM H2O2, 2 h, vs PBS buffer alone", "result": "~500", "unit": "fold"}, {"measurement": "increase in fluorescence intensity in the presence of other oxidants, reductants, nucleophiles and salts (in words)", "setting": "[1]; 2 h, PBS pH 7.4, 37° C.", "result": "negligible"}, {"measurement": "fluorescence (ex: 560 nm, em: 585 nm)", "setting": "[1]; PBS pH 7.4, 37° C., 2 h, (1) PBS Buffer alone", "result": "1.7+/−0.32"}, {"measurement": "fluorescence (ex: 560 nm, em: 585 nm)", "setting": "[1]; PBS pH 7.4, 37° C., 2 h, (2) 1 mM H2O2", "result": "812.25+/−89.32"}, {"measurement": "fluorescence (ex: 560 nm, em: 585 nm)", "setting": "[1]; PBS pH 7.4, 37° C., 2 h, (3) 1 mM glutathione", "result": "43.65+/−4.24"}, {"measurement": "fluorescence (ex: 560 nm, em: 585 nm)", "setting": "[1]; PBS pH 7.4, 37° C., 2 h, (4) 1 mM glutathione disulfide", "result": "29.87+/−0.96"}, {"measurement": "fluorescence (ex: 560 nm, em: 585 nm)", "setting": "[1]; PBS pH 7.4, 37° C., 2 h, (5) 1 mM NaNO2", "result": "47.10+/−11.06"}, {"measurement": "fluorescence (ex: 560 nm, em: 585 nm)", "setting": "[1]; PBS pH 7.4, 37° C., 2 h, (6) 1 mM L-cysteine", "result": "2.63+/−0.13"}, {"measurement": "fluorescence (ex: 560 nm, em: 585 nm)", "setting": "[1]; PBS pH 7.4, 37° C., 2 h, (7) 1 mM L-lysine", "result": "3.31+/−0.61"}, {"measurement": "fluorescence (ex: 560 nm, em: 585 nm)", "setting": "[1]; PBS pH 7.4, 37° C., 2 h, (8) 1 mM L-serine", "result": "1.70+/−0.13"}, {"measurement": "fluorescence (ex: 560 nm, em: 585 nm)", "setting": "[1]; PBS pH 7.4, 37° C., 2 h, (9) 1 mM NaCl", "result": "40.71+/−1.33"}, {"measurement": "fluorescence (ex: 560 nm, em: 585 nm)", "setting": "[1]; PBS pH 7.4, 37° C., 2 h, (10) 1 mM NaBr", "result": "39.56+/−0.02"}, {"measurement": "fluorescence (ex: 560 nm, em: 585 nm)", "setting": "[1]; PBS pH 7.4, 37° C., 2 h, (11) 1 mM L-homocysteine", "result": "74.32+/−5.27"}, {"measurement": "fluorescence (ex: 560 nm, em: 585 nm)", "setting": "[1]; PBS pH 7.4, 37° C., 2 h, (12) 100 mM Na2S", "result": "46.97+/−1.47"}, {"measurement": "fluorescence (ex: 560 nm, em: 585 nm)", "setting": "[1]; PBS pH 7.4, 37° C., 2 h, (13) 1 mM sodium sulfate", "result": "38.01+/−2.86"}, {"measurement": "fluorescence (ex: 560 nm, em: 585 nm)", "setting": "[1]; PBS pH 7.4, 37° C., 2 h, (14) 1 mM sodium thiosulfate", "result": "1.72+/−0.22"}, {"measurement": "fluorescence (ex: 560 nm, em: 585 nm)", "setting": "[1]; PBS pH 7.4, 37° C., 2 h, (15) 1 mM sodium hypochlorite", "result": "16.75+/−1.09"}, {"measurement": "detection limit for H2O2", "setting": "[2]", "result": 1.5, "unit": "µM"}, {"measurement": "fluorescence in live HeLa cells pre-treated with paraquat (in words)", "setting": "[3]; 10 mM paraquat 4 h, then RAH2115 10 μM 1 hour", "result": "strong red fluorescence within cells"}, {"measurement": "fluorescence in live HeLa cells, absence of paraquat (in words)", "setting": "[3]; RAH2115 10 μM, 1 hour, control without paraquat", "result": "no fluorescent cells were observed"}]}
